Laboratory results from paper PMC11910216, “Targeting ubiquitin-independent proteasome with small molecule increases susceptibility in pan-KRAS–mutant cancer models” (The Journal of Clinical Investigation, 2025).
“And” between values parts separate entries of the source, which are not always exact repeats. Equal values may be shown once.

How the values were obtained:
[1] = biological target: T1, interaction between REGγ and α7 (Homo sapiens, UniProt P25786+P25788); experiment: Co-IP of REGγ and α7 with RLY01; type: biochemical; conditions: FLAG-REGγ in HCT116-KO cell lysates, 12 hours in vitro
T1 construct: expressed in transfected cells; host or cells: HCT116-KO (REGγ knockout) cells, lysate treated in vitro
Protocol: Cells were washed with PBS and lysed with RIPA lysis buffer (50 mM Tris-HCl [pH 7.5], 150 mM NaCl, 1% NP-40, and 0.1% SDS). Cell lysates were then centrifuged for 20 minutes at 13,400g at 4°C. To immunoprecipitate protein, 10% of supernatant was reserved as the input, and the rest was incubated with beads for 6–12 hours at 4°C. The beads were washed 3 times with washing buffer (150 mM NaCl, 50 mM Tris-HCl [pH 7.5], 10% glycerol, 1 mM EDTA). After centrifugation, the beads were boiled in SDS loading buffer, followed by Western blotting.

[2] = tested on: REGγ-proteasome substrates (Lats1, IκBε, p21, p16); experiment: Western blot of REGγ-proteasome substrates after RLY01; type: cell-based, human
Protocol: Protein extracts were loaded onto SDS polyacrylamide gels. Gels were transferred onto nitrocellulose membranes, and the membranes were blocked for 1 hour. After overnight incubation with primary antibody at 4°C, the membranes were washed and probed with fluorescent IRDye 800 CW goat anti-rabbit IgG (1:10,000), IRDye 800 CW goat anti-mouse (1:10,000), and IRDye 680 RD goat anti-mouse IgG (1:5,000) antibodies (Cell Signaling Technology). The membranes were then imaged with the Odyssey Infrared Imaging System (LI-COR Biosciences). The primary antibodies used were mouse anti–β-actin (MBL, M177-3), rabbit anti-REGγ (Abcam, ab157157), rabbit anti-KRAS (Abcam, ab275876), rabbit anti-NRF2 (Abcam, ab137550), mouse anti-GAPDH (Proteintech, 60004-1-Ig), anti-FLAG tag (Solarbio, K200001M), anti-HA tag (Abcam, ab9110), rabbit anti-α7 (Abcam, ab133502), rabbit anti-LATS1 (Cell Signaling Technology, 3477), rabbit anti-IκBε (Abcam, ab13413), rabbit anti-p16 (Proteintech, 10883-1-AP), mouse anti-p21 (BD Biosciences, 612234), rabbit anti-PARP (Cell Signaling Technology, 9542), and rabbit anti–caspase-3 ([…], 9662).

Pharmacokinetics study = type: in vivo; conditions: plasma, 20 mg/kg single i.p. dose, male BALB/c mice
Protocol: Pharmacokinetics of RLY01 was analyzed in male BALB/c mice (n = 3). Plasma concentration was determined using liquid chromatography–tandem mass spectrometry (LC-MS/MS) after a single intraperitoneal injection dose (20 mg/kg, i.p.) of a compound as a clear solution (2% DMSO plus 2% Tween-80 plus 96% saline) at a volume of 10 mL/kg. Blood samples were collected into a heparinized test tube at each time point (0.083, 0.25, 0.5, 1.0, 2.0, 4.0, 8.0, and 24 hours) and centrifuged at 8,000g for 10 minutes to generate plasma samples. The blood samples were temporarily put on ice. Plasma samples were put on dry ice for 2 hours and transferred to –20°C. After the completion of the last sampling, all samples were stored at –80°C. LC-MS/MS methods to quantify compound in plasma samples were developed. The samples were analyzed with an Agilent 1290 Infinity II HPLC system coupled to a 6470 LC/TQ mass spectrometer (Agilent), which was equipped with an Applied Biosystems electrospray ionization source and operated with Analysis of Mass Hunter Workstation Data Acquisition (Agilent). Chromatographic separation was fitted with an Agilent Poroshell 120 EC-C18, 2.1 × 50 mm, 1.9 μm column. The mobile phase consisted of 0.1% formic acid in water and 0.1% formic acid in acetonitrile (ACN). Standard curves for drug quantification were prepared by spiking known concentrations of the compound into control plasma. […]

H358 cells = experiment: Cell viability assay (CCK-8); type: cell-based; conditions: Homo sapiens, NCI-H358; H358 (KRAS-MUT); 72 hours
Protocol: (§3) Cells were seeded into 96-well plates at a density of 1,500 cells per well. Cells were then cultivated at 37°C for different periods (0 hours, 24 hours, 48 hours, 72 hours, 96 hours). Upon measurement, 10 μL CCK-8 (Yeasen, 40203ES80) mixed with 100 μL serum-free medium was added to each well and incubated for 1 hour at 37°C. Plates were shaken, and optical density values were determined at 450 nm using a microplate reader (BioTek, Synergy Neo2).

H441 cells = experiment: Cell viability assay (CCK-8); type: cell-based; conditions: Homo sapiens, NCI-H441; H441, Lung; Supplemental Table 4
Protocol: as §3

Colo320 cells = experiment: Cell viability assay (CCK-8); type: cell-based; conditions: Homo sapiens, COLO 320; Colo320, Colon; Supplemental Table 4
Protocol: as §3

A427 cells = experiment: Cell viability assay (CCK-8); type: cell-based; conditions: Homo sapiens, A-427; A427, Lung; Supplemental Table 4
Protocol: as §3

RKO cells = experiment: Cell viability assay (CCK-8); type: cell-based; conditions: Homo sapiens, Colon, Supplemental Table 4
Protocol: as §3

5637 cells = experiment: Cell viability assay (CCK-8); type: cell-based; conditions: Homo sapiens; 5637, Bladder; Supplemental Table 4
Protocol: as §3

Capan-2 cells = experiment: Apoptosis, annexin V and propidium iodide flow cytometry; type: cell-based, human; design: key: % of apoptotic (Annexin V positive) cells
Protocol: (§1) The Apoptosis Detection Kit (MultiSciences Biotech Co. Ltd.) was used to detect cell death according to the manufacturer’s protocol. After RLY01 treatment, both attached and floating cells were harvested, washed with PBS, suspended in binding buffer, stained in annexin V–allophycocyanin (APC) and propidium iodide (PI), and analyzed by flow cytometry. For each experiment, 1 × 10^6 cells/mL were analyzed by the flow cytometer (BD Biosciences) and analyzed with FlowJo v10.8.1 (BD Biosciences).
(§2) Supplemental Figure 8. RLY01 suppresses the clonogenic growth and induces cell apoptosis, related to F i g u re 6. (A) Representative colony formation images after treatment with RLY01 at their respective 1/4 IC50 (Low), IC50 (High) in HCT116- WT, HCT116-shREGγ cells. (B) H460 and Capan -2 (KRAS-MUT) cells were treated with RLY01 for 48 h, and the percentage of apoptotic cells (Annexin positive) was determined by Annexin- V and propidium iodide staining. Each value represents mean ± SEM (n = 3). ****p < 0.0001; p values were measured by two-way ANOVA with Tukey’s multiple-comparisons test.

H460 cells = experiment: as above; type: cell-based, human; design: key: % of apoptotic (Annexin V positive) cells
Protocol: as §1, §2

COc1ccc(C2C(C#N)=C(N)Oc3[nH]ncc32)cc1COc1ccc(Cl)cc1 (stereo not drawn) [RLY01]
interaction between REGγ and α7 (co-IP) [1]: decreased the interaction between REGγ and α7 in a concentration-dependent manner | levels of REGγ-proteasome substrates ([2]; HCT15, SW620, HCT116-WT, SW480 cells, 12 hours): increased the levels of REGγ-proteasome substrates in a dose-dependent manner | levels of REGγ-proteasome substrates ([2]; HCT116-REGγ-KO (HCT116-KO) cells): did not lead to increases in the levels of REGγ-proteasome substrates | protein level of p27 ([2]; HCT116 cells): did not cause changes in the protein level of p27 | half-life (Pharmacokinetics study; mouse, ip): 4.14 h | maximum concentration (Pharmacokinetics study): 6,440 ng/mL | IC50 (H358 cells): 11.6 µM | IC50 (H441 cells): 14 µM | IC50 (Colo320 cells): 26.4 µM | IC50 (A427 cells): 13.8 µM | IC50 (RKO cells): 13.1 µM | IC50 (5637 cells): 8.64 µM | apoptosis (flow cytometry) (Capan-2 cells; Capan-2, High dose): 43 and 42.55 and 42.1 | apoptosis (flow cytometry) (Capan-2 cells; Capan-2, Low dose): 8.92 and 9.03 and 9.4 | apoptosis (flow cytometry) (Capan-2 cells; Capan-2, Medium dose): 14.03 and 14.04 and 13.83 | apoptosis (flow cytometry) (H460 cells; H460, High dose): 57.16 and 57.98 and 55.96 | apoptosis (flow cytometry) (H460 cells; H460, Low dose): 26.1 and 25.06 and 25.52 | apoptosis (flow cytometry) (H460 cells; H460, Medium dose): 39.95 and 39.09 and 39.14
